Test results taken from patent US20220380368A1, “SPIROCYCLIC ANDROGEN RECEPTOR PROTEIN DEGRADERS” (THE REGENTS OF THE UNIVERSITY OF MICHIGAN, priority 2019, published 2022).
Read-outs that look alike come from different tables or passages of the source.

What was measured:
[1] = Mouse PK studies after oral and IV dosing; assay type: in vivo; settings: for F: PO 3 mg/kg vs IV 1 mg/kg; for AUC(0-t) / clearance / half-life / Vd / Cmax / Tmax: in vivo; for clearance: read-out: IV Cl (converted); for Vd: read-out: IV VSS
Procedure: The pharmacokinetics of representative Compounds of the Disclosure were determined after oral and IV dosing at the concentrations indicated in mouse (Table 7). […] The vehicles used in these studies are either (i) 10% PEG400+90% PBS (adjusted to pH to 8.0 by 0.5 N NaOH); or (ii) 100% PEG200.

AR protein = target: T1, AR protein (Homo sapiens, UniProt P10275); assay: Western blotting analysis of AR protein levels in VCaP cells, band quantification, DC50/DC90; assay type: cell-based
T1 construct: endogenous in cells; host or cells: VCaP
T1 sequence (P10275 1-920): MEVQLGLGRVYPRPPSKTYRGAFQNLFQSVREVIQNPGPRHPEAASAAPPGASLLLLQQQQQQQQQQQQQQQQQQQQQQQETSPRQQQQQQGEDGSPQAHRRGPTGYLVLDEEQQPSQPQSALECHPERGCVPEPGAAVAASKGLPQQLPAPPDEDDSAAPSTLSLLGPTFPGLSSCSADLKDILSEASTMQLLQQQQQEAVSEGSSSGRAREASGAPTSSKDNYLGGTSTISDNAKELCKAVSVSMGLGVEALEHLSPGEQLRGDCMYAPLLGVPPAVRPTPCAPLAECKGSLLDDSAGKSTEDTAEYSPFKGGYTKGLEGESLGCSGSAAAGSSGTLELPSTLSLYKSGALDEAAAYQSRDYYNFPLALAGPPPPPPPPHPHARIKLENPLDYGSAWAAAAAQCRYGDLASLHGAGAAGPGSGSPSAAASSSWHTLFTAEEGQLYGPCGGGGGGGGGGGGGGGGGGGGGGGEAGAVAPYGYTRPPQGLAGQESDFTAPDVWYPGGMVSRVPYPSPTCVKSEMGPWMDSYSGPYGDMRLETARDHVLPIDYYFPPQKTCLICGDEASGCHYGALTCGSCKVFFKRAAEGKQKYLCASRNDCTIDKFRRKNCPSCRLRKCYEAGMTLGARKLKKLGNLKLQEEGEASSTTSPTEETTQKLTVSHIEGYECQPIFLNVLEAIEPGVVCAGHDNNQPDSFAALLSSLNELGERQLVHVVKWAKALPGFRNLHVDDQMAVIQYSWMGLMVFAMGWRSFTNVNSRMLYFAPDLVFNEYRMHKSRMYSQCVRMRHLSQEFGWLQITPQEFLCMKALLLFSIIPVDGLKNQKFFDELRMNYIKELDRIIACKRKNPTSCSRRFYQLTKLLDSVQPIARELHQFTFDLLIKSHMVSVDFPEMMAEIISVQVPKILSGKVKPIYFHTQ
Procedure: The appropriate cell line, e.g., prostate cancer LNCaP, Vcap, or 22RV1 cell line, was treated with Compounds of the Disclosure as indicated. The treated cells were lysed with RIPA buffer. […] GAPDH was used as a loading control.
Bands were quantified with ImageJ software. The relative numbers of each band obtained from normalization with its corresponding GAPDH level were compared with Prism 8 software. The DC50 values were produced from Prism 8, and the DC90 values were calculated with an equation=Bottom+(Top−Bottom)/(1+10^((Log EC50−X)*HillSlope) based on DC50 and Hillslope values.

[2] = iv, 1 mg/kg, IV, dose 1 mg/kg, read-out: IV AUC(0 − t)
[3] = iv, 1 mg/kg, IV, dose 1 mg/kg, read-out: IV T1/2 (converted)
[4] = po, 3 mg/kg, PO, dose 3 mg/kg, read-out: PO AUC(0 − t)
[5] = po, 3 mg/kg, PO, dose 3 mg/kg, read-out: PO T1/2 (converted)
[6] = VCaP cells, Table 6; read-out: VCaP DC50

Compound | F [1] [%] | AUC(0-t) [1, 2] [ng·h/mL] | clearance ([1]; iv, 1 mg/kg, IV, dose 1 mg/kg) [mL/min/kg] | half-life [1, 3] [h] | Vd ([1]; iv, 1 mg/kg, IV, dose 1 mg/kg) [L/kg] | Cmax ([1]; po, 3 mg/kg) [ng/mL] | Tmax ([1]; po, 3 mg/kg) [h] | AUC(0-t) [1, 4] [ng·h/mL] | half-life [1, 5] [h] | DC50 (AR protein; [6]) [nM] | DC50 (AR protein; read-out: VCaP DC50; VCaP cells, Table 6) [nM]
C[C@H]1CC2(CCN(c3ccc(C(=O)N4CCC(CN5CCN(c6cc7c(cc6F)C(=O)N(C6CCC(=O)NC6=O)C7=O)CC5)CC4)cc3)CC2)CN1c1ccc(C#N)c(Cl)c1 (stereo partly drawn) [Cpd. No. 444, 2-chloro-4-((3S)-8-(4-(4-((4-(2-(2,6-dioxopiperidin-3-yl)-6-fluoro-1,3-dioxoisoindolin-5-yl)piperazin-1-yl)methyl)piperidine-1-carbonyl)phenyl)-3-methyl-2,8-diazaspiro[4.5]decan-2-yl)benzonitrile] | 68 | 7800 | 1.83 | 8.3 | 1.2 | 1250 | 4 | 16000 | 6.9 |  | 
C[C@H]1CC2(CCN(c3cnc(C(=O)N4CCC(CN5Cc6cc7c(cc6C5)C(=O)N(C5CCC(=O)NC5=O)C7=O)CC4)cn3)CC2)CN1c1ccc(C#N)c(Cl)c1 (stereo partly drawn) [Cpd. No. 495, 2-chloro-4-((3S)-8-(5-(4-((6-(2,6-dioxopiperidin-3-yl)-5,7-dioxo-3,5,6,7-tetrahydropyrrolo[3,4-f]isoindol-2(1H)-yl)methyl)piperidine-1-carbonyl)pyrazin-2-yl)-3-methyl-2,8-diazaspiro[4.5]decan-2-yl)benzonitrile] | 107 | 950 | 16.2 | 2.6 | 2.59 | 722 | 0.8 | 3050 | 3.4 |  | 
C[C@H]1CC2(CCN(c3ccc(C(=O)N4CCN(C5CN(c6cc7c(cc6F)C(=O)N(C6CCC(=O)NC6=O)C7=O)C5)CC4)nn3)CC2)CN1c1ccc(C#N)c(Cl)c1 (stereo partly drawn) [Cpd. No. 501, 2-chloro-4-((3S)-8-(6-(4-(1-(2-(2,6-dioxopiperidin-3-yl)-6-fluoro-1,3-dioxoisoindolin-5-yl)azetidin-3-yl)piperazine-1-carbonyl)pyridazin-3-yl)-3-methyl-2,8-diazaspiro[4.5]decan-2-yl)benzonitrile] |  |  |  |  |  |  |  |  |  | < 1 | 
C[C@H]1CC2(CCN(c3ccc(C(=O)N4CCN(CC5CN(c6cc7c(cc6F)C(=O)N(C6CCC(=O)NC6=O)C7=O)C5)CC4)nn3)CC2)CN1c1ccc(C#N)c(Cl)c1 (stereo partly drawn) [Cpd. No. 503, 2-chloro-4-((3S)-8-(6-(4-((1-(2-(2,6-dioxopiperidin-3-yl)-6-fluoro-1,3-dioxoisoindolin-5-yl)azetidin-3-yl)methyl)piperazine-1-carbonyl)pyridazin-3-yl)-3-methyl-2,8-diazaspiro[4.5]decan-2-yl)benzonitrile] |  |  |  |  |  |  |  |  |  | 1 to 10 | 
C[C@H]1CC2(CCN(c3ccc(C(=O)N4CCN(C5CN(c6cc7c(cc6F)C(=O)N(C6CCC(=O)NC6=O)C7=O)C5)CC4)cn3)CC2)CN1c1ccc(C#N)c(Cl)c1 (stereo partly drawn) [Cpd. No. 504, 2-chloro-4-((3S)-8-(5-(4-(1-(2-(2,6-dioxopiperidin-3-yl)-6-fluoro-1,3-dioxoisoindolin-5-yl)azetidin-3-yl)piperazine-1-carbonyl)pyridin-2-yl)-3-methyl-2,8-diazaspiro[4.5]decan-2-yl)benzonitrile] |  |  |  |  |  |  |  |  |  | < 1 | 
C[C@H]1CC2(CCN(c3ccc(C(=O)N4CCN(C5CN(c6cc7c(cc6F)C(=O)N(C6CCC(=O)NC6=O)C7=O)C5)CC4)cn3)CC2)CN1c1ccc(C#N)c(Cl)c1 (stereo partly drawn) [Cpd. No. 505, 2-chloro-4-((3S)-8-(5-(4-(1-(2-(2,6-dioxopiperidin-3-yl)-6-fluoro-1,3-dioxoisoindolin-5-yl)azetidin-3-yl)piperazine-1-carbonyl)pyridin-2-yl)-3-methyl-2,8-diazaspiro[4.5]decan-2-yl)benzonitrile] |  |  |  |  |  |  |  |  |  |  | < 1
C[C@H]1CC2(CCN(c3ccc(C(=O)N4CCN(C5CN(c6cc7c(cc6F)C(=O)N(C6CCC(=O)NC6=O)C7=O)C5)CC4)cn3)CC2)CN1c1ccc(C#N)c(Cl)c1 (stereo partly drawn) [Cpd. No. 506, 2-chloro-4-((3S)-8-(5-(4-(1-(2-(2,6-dioxopiperidin-3-yl)-6-fluoro-1,3-dioxoisoindolin-5-yl)azetidin-3-yl)piperazine-1-carbonyl)pyridin-2-yl)-3-methyl-2,8-diazaspiro[4.5]decan-2-yl)benzonitrile] |  |  |  |  |  |  |  |  |  | < 1 | 
C[C@H]1CC2(CCN(c3ccc(C(=O)N4CCN(C5CN(c6cc7c(cc6F)C(=O)N(C6CCC(=O)NC6=O)C7=O)C5)CC4)cn3)CC2)CN1c1ccc(C#N)c(Cl)c1 (stereo partly drawn) [Cpd. No. 507, 2-chloro-4-((3S)-8-(5-(4-(1-(2-(2,6-dioxopiperidin-3-yl)-6-fluoro-1,3-dioxoisoindolin-5-yl)azetidin-3-yl)piperazine-1-carbonyl)pyridin-2-yl)-3-methyl-2,8-diazaspiro[4.5]decan-2-yl)benzonitrile] |  |  |  |  |  |  |  |  |  | 10 to 100 | 
C[C@H]1CC2(CCN(c3ccc(C(=O)N4CCN(C5CCN(c6ccc7c(c6)C(=O)N(C6CCC(=O)NC6=O)C7=O)CC5)CC4)cn3)CC2)CN1c1ccc(C#N)c(Cl)c1 (stereo partly drawn) [Cpd. No. 508, 2-chloro-4-((3S)-8-(5-(4-(1-(2-(2,6-dioxopiperidin-3-yl)-1,3-dioxoisoindolin-5-yl)piperidin-4-yl)piperazine-1-carbonyl)pyridin-2-yl)-3-methyl-2,8-diazaspiro[4.5]decan-2-yl)benzonitrile] |  |  |  |  |  |  |  |  |  | < 1 | 
C[C@H]1CC2(CCN(c3ccc(C(=O)N4CCN(C5CCN(c6ccc7c(c6)C(=O)N(C6CCC(=O)NC6=O)C7=O)CC5)CC4)cn3)CC2)CN1c1ccc(C#N)c(Cl)c1 (stereo partly drawn) [Cpd. No. 509, 2-chloro-4-((3S)-8-(5-(4-(1-(2-(2,6-dioxopiperidin-3-yl)-1,3-dioxoisoindolin-5-yl)piperidin-4-yl)piperazine-1-carbonyl)pyridin-2-yl)-3-methyl-2,8-diazaspiro[4.5]decan-2-yl)benzonitrile] |  |  |  |  |  |  |  |  |  | < 1 | 
C[C@H]1CC2(CCN(c3ncc(C(=O)N4CCN(C5CN(c6ccc7c(c6)C(=O)N(C6CCC(=O)NC6=O)C7=O)C5)CC4)cn3)CC2)CN1c1ccc(C#N)c(Cl)c1 (stereo partly drawn) [Cpd. No. 512, 2-chloro-4-((3S)-8-(5-(4-(1-(2-(2,6-dioxopiperidin-3-yl)-1,3-dioxoisoindolin-5-yl)azetidin-3-yl)piperazine-1-carbonyl)pyrimidin-2-yl)-3-methyl-2,8-diazaspiro[4.5]decan-2-yl)benzonitrile] |  |  |  |  |  |  |  |  |  | < 1 | 
C[C@H]1CC2(CCN(c3ccc(C(=O)N4CCN(C5CCN(c6cc7c(cc6F)C(=O)N(C6CCC(=O)NC6=O)C7=O)CC5)CC4)cc3)CC2)CN1c1ccc(C#N)c(Cl)c1 (stereo partly drawn) [Cpd. No. 540] | 61 | 7990 | 2 | 7.3 | 0.96 | 1130 | 3.3 | 14500 | 7.8 |  | 
C[C@H]1CC2(CCN(c3ccc(C(=O)N4CC[C@@H](CN5CCN(c6ccc7c(c6)C(=O)N(C6CCC(=O)NC6=O)C7=O)CC5)C4)cc3)CC2)CN1c1ccc(C#N)c(Cl)c1 (stereo partly drawn) [compound 448] | 26 | 78 | 203 | 2.74 | 25.3 | 16 | 1.67 | 60 | 4.78 |  | 
C[C@H]1CC2(CCN(c3ccc(C(=O)N4CCN(CC5CCN(c6cc7c(cc6F)C(=O)N(C6CCC(=O)NC6=O)C7=O)CC5)CC4)nn3)CC2)CN1c1ccc(C#N)c(Cl)c1 (stereo partly drawn) [compound 588] | 54 | 1080 | 13.8 | 9.5 | 6.76 | 347 | 1 | 1760 | 5.9 |  | 
